Measured values taken from PMC4322352, “Sirtinol Inhibits Neutrophil Elastase Activity and Attenuates Lipopolysaccharide-Mediated Acute Lung Injury in Mice” (Scientific Reports, 2015).

Molecular target: T1, human neutrophil elastase (HNE) (Homo sapiens, UniProt P08246)
T1 construct: gene ELANE
T1 sequence (P08246 30-247): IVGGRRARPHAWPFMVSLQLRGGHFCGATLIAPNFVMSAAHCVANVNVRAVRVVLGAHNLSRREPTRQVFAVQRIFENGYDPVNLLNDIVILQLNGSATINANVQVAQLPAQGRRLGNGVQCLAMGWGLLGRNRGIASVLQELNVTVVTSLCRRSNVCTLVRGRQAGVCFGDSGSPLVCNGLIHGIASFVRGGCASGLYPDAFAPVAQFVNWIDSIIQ
Test: chromogenic enzymatic assay with purified HNE, absorbance at […] nm
Assay type: biochemical

Work on `CC(NC(=O)c1ccccc1/N=C/c1c(O)ccc2ccccc12)c1ccccc1` (stereo not shown) [Sirtinol, 2-[(2-hydroxynaphthalen-1-ylmethylene)amino]-N-(1-phenethyl) benzamide] yielded an IC50 of 8.4 ± 0.53 µM.
